Assay results from patent US12594276B2, “Inhibitors of human immunodeficiency virus replication” (ViiV Healthcare UK (No.5) Limited, priority 2024, dated 2026).

What was measured:
[1] = system: recombinant NL4-3 virus (nef section replaced with Renilla luciferase gene) in MT-2 cells; assay: HIV cell culture assay (antiviral activity, luciferase readout); assay type: cell-based; conditions: Renilla, NL43, MT-2 cells infected for 4-5 days with recombinant NL4-3 Renilla luciferase virus
Summary of the method: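 Antiviral EC50 derived from luciferase signal using the exponential median effect equation. Infection of MT-2 cells ran 4-5 days alongside serial dilutions of compound, with virus generated by proviral clone transfection of 293T cells.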

[2] = Compound cytotoxicity, XTT-based colorimetric assay; assay type: cell-based; conditions: human; uninfected MT2 cells, day 4, XTT; read-out: CC50
Summary of the method: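 Cells seeded as for the antiviral assay but left uninfected (MT2). Compound exposure continued to day 4. XTT reagent added and colour read. CC50 calculated.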

Row | SMILES | EC50 [1] [nM] | CC50 at 4 days [2] [nM]
1 | Cc1cc(C2CCC(F)(F)CC2)nc2nc([C@H](Cc3cc(F)cc(F)c3)NC(=O)Cn3nc(C4CC4)c4c3C[C@@H]3C[C@H]43)n(-c3ccc(Cl)c4c(NS(C)(=O)=O)nn(CCN5C[C@@H](C)OC(C)(C)C5)c34)c(=O)c12 (atropisomer, axis not shown; (P)) [Example 459, N-[(1S)-1-[(3P)-3-(4-chloro-3-methanesulfonamido-1-{2-[(6R)-2,2,6-trimethylmorpholin-4-yl]ethyl}-1H-indazol-7-yl)-7-(4,4-difluorocyclohexyl)-5-methyl-4-oxo-3H,4H-pyrido[2,3-d]pyrimidin-2-yl]-2-(3,5-difluorophenyl)ethyl]-2-[(2S,4S)-9-cyclopropyl-7,8-diazatricyclo[4.3.0.0^2,^4]nona-1(6),8-dien-7-yl]acetamide] | 0.005 | > 20
2 | C[C@@H]1CN(CCn2nc(NS(C)(=O)=O)c3c(Cl)ccc(-n4c([C@H](Cc5cc(F)cc(F)c5)NC(=O)Cn5nc(C6CC6)c6c5C[C@@H]5C[C@H]65)nc5nc(C6CCC(F)(F)CC6)cc(C(F)F)c5c4=O)c32)CC(C)(C)O1 (atropisomer, axis not shown; (P)) [Example 462, N-[(1S)-1-[(3P)-3-(4-chloro-3-methanesulfonamido-1-{2-[(6R)-2,2,6-trimethylmorpholin-4-yl]ethyl}-1H-indazol-7-yl)-7-(4,4-difluorocyclohexyl)-5-(difluoromethyl)-4-oxo-3H,4H-pyrido[2,3-d]pyrimidin-2-yl]-2-(3,5-difluorophenyl)ethyl]-2-[(2S,4S)-9-cyclopropyl-7,8-diazatricyclo[4.3.0.0^2,^4]nona-1(6),8-dien-7-yl]acetamide] | 0.019 | > 20
3 | CC(C)[C@H]1CN(CCn2nc(NS(C)(=O)=O)c3c(Cl)ccc(-n4c([C@H](Cc5cc(F)cc(F)c5)NC(=O)Cn5nc(C6CC6)c6c5C[C@@H]5C[C@H]65)nc5nc(C6CCC(F)(F)CC6)cc(C(F)F)c5c4=O)c32)CCO1 (atropisomer, axis not shown; (P)) [Example 467, N-[(1S)-1-[(3P)-3-(4-chloro-3-methanesulfonamido-1-{2-[(2S)-2-(propan-2-yl)morpholin-4-yl]ethyl}-1H-indazol-7-yl)-7-(4,4-difluorocyclohexyl)-5-(difluoromethyl)-4-oxo-3H,4H-pyrido[2,3-d]pyrimidin-2-yl]-2-(3,5-difluorophenyl)ethyl]-2-[(2S,4S)-9-cyclopropyl-7,8-diazatricyclo[4.3.0.0^2,^4]nona-1(6),8-dien-7-yl]acetamide] | 0.017 | > 20
4 | COCCCn1nc(NS(C)(=O)=O)c2c(Cl)ccc(-n3c([C@H](Cc4cc(F)cc(F)c4)NC(=O)Cn4nc(C(F)F)c5c4C(F)(F)[C@@H]4C[C@H]54)nc4nc(C5CCC(F)(F)CC5)cc(CN5CC(C)(C)OC(C)(C)C5)c4c3=O)c21 (atropisomer, axis not shown; (P)) [Example 471, N-[(1S)-1-[(3P)-3-[4-chloro-3-methanesulfonamido-1-(3-methoxypropyl)-1H-indazol-7-yl]-7-(4,4-difluorocyclohexyl)-4-oxo-5-[(2,2,6,6-tetramethylmorpholin-4-yl)methyl]-3H,4H-pyrido[2,3-d]pyrimidin-2-yl]-2-(3,5-difluorophenyl)ethyl]-2-[(2S,4R)-9-(difluoromethyl)-5,5-difluoro-7,8-diazatricyclo[4.3.0.0^2,^4]nona-1(6),8-dien-7-yl]acetamide] | 0.038 | > 20
5 | CNCc1cc(C2CCC(F)(F)CC2)nc2nc([C@H](Cc3cc(F)cc(F)c3)NC(=O)Cn3nc(C(F)F)c4c3C(F)(F)[C@@H]3C[C@H]43)n(-c3ccc(Cl)c4c(NS(C)(=O)=O)nn(CCCOC)c34)c(=O)c12 (atropisomer, axis not shown; (P)) [Example 472, N-[(1S)-1-[(3P)-3-[4-chloro-3-methanesulfonamido-1-(3-methoxypropyl)-1H-indazol-7-yl]-7-(4,4-difluorocyclohexyl)-5-[(methylamino)methyl]-4-oxo-3H,4H-pyrido[2,3-d]pyrimidin-2-yl]-2-(3,5-difluorophenyl)ethyl]-2-[(2S,4R)-9-(difluoromethyl)-5,5-difluoro-7,8-diazatricyclo[4.3.0.0^2,^4]nona-1(6),8-dien-7-yl]acetamide] | 0.087 | > 20
6 | Cc1cc(C2(C)CCC(F)(F)CC2)nc2nc([C@H](Cc3cc(F)cc(F)c3)NC(=O)Cn3nc(C(F)F)c4c3C(F)(F)[C@@H]3C[C@H]43)n(-c3ccc(Cl)c4c(NS(C)(=O)=O)nn(CCN5C[C@H](F)C[C@H](F)C5)c34)c(=O)c12 (atropisomer, axis not shown; (P)) [Example 473, N-[(1S)-1-[(3P)-3-(4-chloro-1-{2-[(3R,5S)-3,5-difluoropiperidin-1-yl]ethyl}-3-methanesulfonamido-1H-indazol-7-yl)-7-(4,4-difluoro-1-methylcyclohexyl)-5-methyl-4-oxo-3H,4H-pyrido[2,3-d]pyrimidin-2-yl]-2-(3,5-difluorophenyl)ethyl]-2-[(2S,4R)-9-(difluoromethyl)-5,5-difluoro-7,8-diazatricyclo[4.3.0.0^2,^4]nona-1(6),8-dien-7-yl]acetamide] | 0.008 | > 20
7 | COCCCn1nc(NS(C)(=O)=O)c2c(Cl)ccc(-n3c([C@H](Cc4cc(F)cc(F)c4)NC(=O)Cn4nc(C(F)F)c5c4C(F)(F)[C@@H]4C[C@H]54)nc4nc(C5CCC(F)(F)CC5)cc(NCCN5C[C@@H](C)O[C@@H](C)C5)c4c3=O)c21 (atropisomer, axis not shown; (P)) [Example 475] | 0.004 | > 20
8 | COCCCn1nc(NS(C)(=O)=O)c2c(Cl)ccc(-n3c([C@H](Cc4cc(F)cc(F)c4)NC(=O)Cn4nc(C(F)F)c5c4C(F)(F)[C@@H]4C[C@H]54)nc4nc(C5CCC(F)(F)CC5)cc(NCCN5CCOC(C)(C)C5)c4c3=O)c21 (atropisomer, axis not shown; (P)) [Example 476, N-[(1S)-1-[(3P)-3-[4-chloro-3-methanesulfonamido-1-(3-methoxypropyl)-1H-indazol-7-yl]-7-(4,4-difluorocyclohexyl)-5-{[2-(2,2-dimethylmorpholin-4-yl)ethyl]amino}-4-oxo-3H,4H-pyrido[2,3-d]pyrimidin-2-yl]-2-(3,5-difluorophenyl)ethyl]-2-[(2S,4R)-9-(difluoromethyl)-5,5-difluoro-7,8-diazatricyclo[4.3.0.0^2,^4]nona-1(6),8-dien-7-yl]acetamide] | 0.005 | > 20
9 | COCCCn1nc(NS(C)(=O)=O)c2c(Cl)ccc(-n3c([C@H](Cc4cc(F)cc(F)c4)NC(=O)Cn4nc(C(F)F)c5c4C(F)(F)[C@@H]4C[C@H]54)nc4nc(C5CCC(F)(F)CC5)cc(NCCN5CCOCC5(C)C)c4c3=O)c21 (atropisomer, axis not shown; (P)) [Example 477, N-[(1S)-1-[(3P)-3-[4-chloro-3-methanesulfonamido-1-(3-methoxypropyl)-1H-indazol-7-yl]-7-(4,4-difluorocyclohexyl)-5-{[2-(3,3-dimethylmorpholin-4-yl)ethyl]amino}-4-oxo-3H,4H-pyrido[2,3-d]pyrimidin-2-yl]-2-(3,5-difluorophenyl)ethyl]-2-[(2S,4R)-9-(difluoromethyl)-5,5-difluoro-7,8-diazatricyclo[4.3.0.0^2,^4]nona-1(6),8-dien-7-yl]acetamide] | 0.013 | > 20
10 | Cc1cc(C2CCC(F)(F)CC2)nc2nc([C@H](Cc3cc(F)cc(F)c3)NC(=O)Cn3nc(C(F)F)c4c3C(F)(F)[C@@H]3C[C@H]43)n(-c3ccc(Cl)c4c(NS(C)(=O)=O)nn(CCN5CCOC(C)(C)C5)c34)c(=O)c12 (atropisomer, axis not shown; (P)) [Example 479, N-[(1S)-1-[(3P)-3-{4-chloro-1-[2-(2,2-dimethylmorpholin-4-yl)ethyl]-3-methanesulfonamido-1H-indazol-7-yl}-7-(4,4-difluorocyclohexyl)-5-methyl-4-oxo-3H,4H-pyrido[2,3-d]pyrimidin-2-yl]-2-(3,5-difluorophenyl)ethyl]-2-[(2S,4R)-9-(difluoromethyl)-5,5-difluoro-7,8-diazatricyclo[4.3.0.0^2,^4]nona-1(6),8-dien-7-yl]acetamide] | 0.004 | > 20
11 | Cc1cc(C2CCC(F)(F)CC2)nc2nc([C@H](Cc3cc(F)cc(F)c3)NC(=O)Cn3nc(C4CC4)c4c3C[C@@H]3C[C@H]43)n(-c3ccc(Cl)c4c(NS(C)(=O)=O)nn(CCN5CCOC(C)(C)C5)c34)c(=O)c12 (atropisomer, axis not shown; (P)) [Example 480, N-[(1S)-1-[(3P)-3-{4-chloro-1-[2-(2,2-dimethylmorpholin-4-yl)ethyl]-3-methanesulfonamido-1H-indazol-7-yl}-7-(4,4-difluorocyclohexyl)-5-methyl-4-oxo-3H,4H-pyrido[2,3-d]pyrimidin-2-yl]-2-(3,5-difluorophenyl)ethyl]-2-[(2S,4S)-9-cyclopropyl-7,8-diazatricyclo[4.3.0.0^2,^4]nona-1(6),8-dien-7-yl]acetamide] | 0.005 | > 20
12 | COCCCn1nc(NS(C)(=O)=O)c2c(Cl)ccc(-n3c([C@H](Cc4cc(F)cc(F)c4)NC(=O)Cn4nc(C(F)F)c5c4C(F)(F)[C@@H]4C[C@H]54)nc4nc(C5CCC(F)(F)CC5)cc(NCC5(F)CCOCC5)c4c3=O)c21 (atropisomer, axis not shown; (P)) [Example 484, N-[(1S)-1-[(3P)-3-[4-chloro-3-methanesulfonamido-1-(3-methoxypropyl)-1H-indazol-7-yl]-7-(4,4-difluorocyclohexyl)-5-{[(4-fluorooxan-4-yl)methyl]amino}-4-oxo-3H,4H-pyrido[2,3-d]pyrimidin-2-yl]-2-(3,5-difluorophenyl)ethyl]-2-[(2S,4R)-9-(difluoromethyl)-5,5-difluoro-7,8-diazatricyclo[4.3.0.0^2,^4]nona-1(6),8-dien-7-yl]acetamide] | 0.006 | > 20
